SMILES strings stand for the structures.

In this experiment the target is IRAK4 (Homo sapiens (Human), UniProt Q9NWZ3). Nature of the experiment: IRAK-4 AlphaScreen biochemical kinase assay. To be noted: 1 nM IRAK4, 1 mM ATP, 3.5 h at RT. On the procedure: The biochemical assay is in a AlphaScreen format. The kinase reaction is based on the IRAK-4 phosphorylation of a biotin labeled peptide. The phosphopeptide is incubated with anti-phosphothreonine antibody as well as streptavidin- and protein A-coated beads. Binding of the protein-A coated beads to the antibody and the streptavidin beads to the peptide, leads to an energy transfer from one bead to the other, ultimately producing a luminescent/fluorescent signal.
Chain of IRAK4 (Q9NWZ3 whole entry, species assumed): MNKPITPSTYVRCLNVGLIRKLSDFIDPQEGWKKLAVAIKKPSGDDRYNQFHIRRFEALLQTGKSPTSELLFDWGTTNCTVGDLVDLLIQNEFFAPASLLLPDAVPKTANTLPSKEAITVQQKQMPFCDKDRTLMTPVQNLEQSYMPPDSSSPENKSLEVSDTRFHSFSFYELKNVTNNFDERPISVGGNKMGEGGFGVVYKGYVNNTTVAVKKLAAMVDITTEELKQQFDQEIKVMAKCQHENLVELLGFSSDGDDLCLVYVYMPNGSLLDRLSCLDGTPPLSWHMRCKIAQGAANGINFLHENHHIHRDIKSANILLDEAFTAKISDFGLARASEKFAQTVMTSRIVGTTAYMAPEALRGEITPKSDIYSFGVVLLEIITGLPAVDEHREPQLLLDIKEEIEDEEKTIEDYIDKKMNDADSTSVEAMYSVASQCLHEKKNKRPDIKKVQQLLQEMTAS
What is called IC50 is the concentration that gives 50% inhibition. In the case of `N#Cc1cccc(-n2ncc3ccc(-c4cncc(N)c4)cc32)c1` [Example 33, 3-(6-(5-aminopyridin-3-yl)-1H-indazol-1-yl)benzonitrile], the IC50 fell in the range of 100 to 1000 nM. Regarding `Cc1cc(C#N)cc(-n2ncc3ccc(-c4cncc(N)c4)cc32)n1` [Example 34, 2-(6-(5-aminopyridin-3-yl)-1H-indazol-1-yl)-6-methylisonicotinonitrile], the IC50 fell in the range of 100 to 1000 nM. With `N#Cc1ccnc(-n2ncc3ccc(-c4cncc(N)c4)cc32)c1` [Example 35, 2-(6-(5-aminopyridin-3-yl)-1H-indazol-1-yl)isonicotinonitrile] the figure was 100 to 1000 nM; with `Cc1ccnc(-n2ncc3ccc(-c4cncc(N)c4)cc32)n1` [Example 36, 5-(1-(4-methylpyrimidin-2-yl)-1H-indazol-6-yl)pyridin-3-amine], below 100 nM. With `N#Cc1ccnc(-n2ncc3ccc(-c4cncc(N)c4)cc32)n1` [Example 37, 2-(6-(5-aminopyridin-3-yl)-1H-indazol-1-yl)pyrimidine-4-carbonitrile] the figure was below 100 nM.

On to `Cc1ccc(Cl)c(-n2ncc3ccc(-c4cncc(N)c4)cc32)n1` [Example 38, 5-(1-(3-chloro-6-methylpyridin-2-yl)-1H-indazol-6-yl)pyridin-3-amine], for which the concentration for half-maximal inhibition (IC50) was 1000 to 10000 nM. Turning to `Cc1ccnc(-n2ncc3ccc(-c4cncc(N)c4)cc32)c1` [Example 39, 5-(1-(4-methylpyridin-2-yl)-1H-indazol-6-yl)pyridin-3-amine], the IC50 was 100 to 1000 nM. The figure for `Nc1cncc(-c2ccc3cnn(-c4cccc(C(F)(F)F)n4)c3c2)c1` [Example 40, 5-(1-(6-(trifluoromethyl)pyridin-2-yl)-1H-indazol-6-yl)pyridin-3-amine] is below 100 nM; for `Cc1cccc(-c2ncc3ccc(-c4cncc(N)c4)cn23)n1` [Example 41, 5-(3-(6-methylpyridin-2-yl)imidazo[1,5-a]pyridin-6-yl)pyridin-3-amine] it is below 100 nM; for `Cc1cccc(-c2ncc3ccc(-c4cccc(N)c4)cn23)n1` [Example 42, 3-(3-(6-methylpyridin-2-yl)imidazo[1,5-a]pyridin-6-yl)aniline] it is below 100 nM.

`Cc1cccc(-n2ncc3cc(F)c(-c4cncc(N)c4)cc32)n1` [Example 43, 5-(5-fluoro-1-(6-methylpyridin-2-yl)-1H-indazol-6-yl)pyridin-3-amine]: the IC50 lay within 100 to 1000 nM. For `Cc1cccc(-n2ncc3cc(C)c(-c4cncc(N)c4)cc32)n1` [Example 44, 5-(5-methyl-1-(6-methylpyridin-2-yl)-1H-indazol-6-yl)pyridin-3-amine], the half-maximal inhibitory concentration (IC50) is 1000 to 10000 nM. As for `N#Cc1cccc(-n2ncc3ccc(-c4cccc(CN)n4)cc32)n1` [Example 46, 6-(6-(6-(aminomethyl)pyridin-2-yl)-1H-indazol-1-yl)picolinonitrile], the IC50 lay in the range of 100 to 1000 nM. With `NCc1cccc(-c2ccc3cnn(-c4cccc(C(N)=O)n4)c3c2)n1` [Example 47, 6-(6-(6-(aminomethyl)pyridin-2-yl)-1H-indazol-1-yl)picolinamide] the figure was below 100 nM; with `NCc1cccc(-c2ccc3cnn(-c4cccc(C(F)(F)F)n4)c3c2)n1` [Example 48, (6-(1-(6-(trifluoromethyl)pyridin-2-yl)-1H-indazol-6-yl)pyridin-2-yl)methanamine], below 100 nM; with `COC(=O)c1cc(-c2cncc(N)c2)cc2c1cnn2-c1cccc(C#N)n1` [Example 49, methyl 6-(5-aminopyridin-3-yl)-1-(6-cyanopyridin-2-yl)-1H-indazole-4-carboxylate], below 100 nM. With `COC(=O)c1cc(-c2cncc(N)c2)cc2c1cnn2-c1cccc(C(F)(F)F)n1` [Example 50, methyl 6-(5-aminopyridin-3-yl)-1-(6-(trifluoromethyl)pyridin-2-yl)-1H-indazole-4-carboxylate] the figure was below 100 nM. With `Nc1cncc(-c2cc(C(=O)O)c3cnn(-c4cccc(C(F)(F)F)n4)c3c2)c1` [Example 51, 6-(5-aminopyridin-3-yl)-1-(6-(trifluoromethyl)pyridin-2-yl)-1H-indazole-4-carboxylic acid] the figure was below 100 nM; with `NC(=O)c1cc(-c2cncc(N)c2)cc2c1cnn2-c1cccc(C(F)(F)F)n1` [Example 52, 6-(5-aminopyridin-3-yl)-1-(6-(trifluoromethyl)pyridin-2-yl)-1H-indazole-4-carboxamide], below 100 nM. On to `NCc1cc(-c2cncc(N)c2)cc2c1cnn2-c1cccc(C(F)(F)F)n1` [Example 53, 5-(4-(aminomethyl)-1-(6-(trifluoromethyl)pyridin-2-yl)-1H-indazol-6-yl)pyridin-3-amine], for which the half-maximal inhibitory concentration (IC50) lay within 100 to 1000 nM. With `Nc1cncc(-c2cc(CO)c3cnn(-c4cccc(C(F)(F)F)n4)c3c2)c1` [Example 54, (6-(5-aminopyridin-3-yl)-1-(6-(trifluoromethyl)pyridin-2-yl)-1H-indazol-4-yl)methanol] the figure was below 100 nM; with `Cc1cccc(-n2ncc3ccc(-c4cccc(C(C)N)n4)cc32)n1` (stereo not drawn) [Example 55, 1-(6-(1-(6-methylpyridin-2-yl)-1H-indazol-6-yl)pyridin-2-yl)ethanamine], below 100 nM; with `COC(=O)c1cc(-c2cccc(C(C)N)n2)cc2c1cnn2-c1cccc(C(F)(F)F)n1` (stereo not drawn) [Example 56, methyl 6-(6-(1-aminoethyl)pyridin-2-yl)-1-(6-(trifluoromethyl)pyridin-2-yl)-1H-indazole-4-carboxylate], below 100 nM. With `CC(N)c1cccc(-c2cc(CO)c3cnn(-c4cccc(C(F)(F)F)n4)c3c2)n1` (stereo not drawn) [Example 57, (6-(6-(1-aminoethyl)pyridin-2-yl)-1-(6-(trifluoromethyl)pyridin-2-yl)-1H-indazol-4-yl)methanol] the figure was below 100 nM; with `CC(N)c1cccc(-c2cc(C(=O)N(C)C)c3cnn(-c4cccc(C(F)(F)F)n4)c3c2)n1` (stereo not drawn) [Example 58, 6-(6-(1-aminoethyl)pyridin-2-yl)-N,N-dimethyl-1-(6-(trifluoromethyl)pyridin-2-yl)-1H-indazole-4-carboxamide], 100 to 1000 nM; with `CNC(=O)c1cc(-c2cccc(C(C)N)n2)cc2c1cnn2-c1cccc(C(F)(F)F)n1` (stereo not drawn) [Example 59, 6-(6-(1-aminoethyl)pyridin-2-yl)-N-methyl-1-(6-(trifluoromethyl)pyridin-2-yl)-1H-indazole-4-carboxamide], below 100 nM. Molecule `CN(C)C(=O)c1cc(-c2cncc(N)c2)cc2c1cnn2-c1cccc(C(F)(F)F)n1` [Example 60, 6-(5-aminopyridin-3-yl)-N,N-dimethyl-1-(6-(trifluoromethyl)pyridin-2-yl)-1H-indazole-4-carboxamide] came in with a half-maximal inhibitory concentration (IC50) of 1000 to 10000 nM. With `CNC(=O)c1cc(-c2cncc(N)c2)cc2c1cnn2-c1cccc(C(F)(F)F)n1` [Example 61, 6-(5-aminopyridin-3-yl)-N-methyl-1-(6-(trifluoromethyl)pyridin-2-yl)-1H-indazole-4-carboxamide] the figure was below 100 nM. With `NC1CCc2ccc(-c3ccc4cnn(-c5cccc(C(F)(F)F)n5)c4c3)nc21` (stereo not drawn) [Example 62, 2-(1-(6-(trifluoromethyl)pyridin-2-yl)-1H-indazol-6-yl)-6,7-dihydro-5H-cyclopenta[b]pyridin-7-amine] the figure was 1000 to 10000 nM; with `NC1CCCc2ccc(-c3ccc4cnn(-c5cccc(C(F)(F)F)n5)c4c3)nc21` (stereo not drawn) [Example 63, 2-(1-(6-(trifluoromethyl)pyridin-2-yl)-1H-indazol-6-yl)-5,6,7,8-tetrahydroquinolin-8-amine], below 100 nM; with `Nc1cncc(-c2ccc3cnn(-c4cccc(C(=O)NCCO)n4)c3c2)c1` [Example 65, 6-(6-(5-aminopyridin-3-yl)-1H-indazol-1-yl)-N-(2-hydroxyethyl)picolinamide], 100 to 1000 nM. With `Nc1cncc(-c2ccc3cnn(-c4cccc(C(=O)NCCCO)n4)c3c2)c1` [Example 66, 6-(6-(5-aminopyridin-3-yl)-1H-indazol-1-yl)-N-(3-hydroxypropyl)picolinamide] the figure was 100 to 1000 nM; with `CC(O)CNC(=O)c1cccc(-n2ncc3ccc(-c4cncc(N)c4)cc32)n1` (stereo not drawn) [Example 67, 6-(6-(5-aminopyridin-3-yl)-1H-indazol-1-yl)-N-(2-hydroxypropyl)picolinamide], 1000 to 10000 nM.

In the case of `Nc1cncc(-c2ccc3cnn(-c4cccc(C(=O)N5CC(O)C5)n4)c3c2)c1` [Example 68, (6-(6-(5-aminopyridin-3-yl)-1H-indazol-1-yl)pyridin-2-yl)(3-hydroxyazetidin-1-yl)methanone], the IC50 is 100 to 1000 nM. As for `CN(C)CCNC(=O)c1cccc(-n2ncc3ccc(-c4cncc(N)c4)cc32)n1` [Example 69, 6-(6-(5-aminopyridin-3-yl)-1H-indazol-1-yl)-N-(2-(dimethylamino)ethyl)picolinamide], the IC50 fell in the range of 1000 to 10000 nM. Take `N#CCCNC(=O)c1cccc(-n2ncc3ccc(-c4cncc(N)c4)cc32)n1` [Example 70, 6-(6-(5-aminopyridin-3-yl)-1H-indazol-1-yl)-N-(2-cyanoethyl)picolinamide]: the 50% inhibitory concentration (IC50) was in the range of 1000 to 10000 nM.

For `N#CCCCNC(=O)c1cccc(-n2ncc3ccc(-c4cncc(N)c4)cc32)n1` [Example 71, 6-(6-(5-aminopyridin-3-yl)-1H-indazol-1-yl)-N-(3-cyanopropyl)picolinamide], the IC50 was in the range of 100 to 1000 nM. The figure for `NCCNC(=O)c1cccc(-n2ncc3ccc(-c4cncc(N)c4)cc32)n1` [Example 72, N-(2-aminoethyl)-6-(6-(5-aminopyridin-3-yl)-1H-indazol-1-yl)picolinamide] is below 100 nM; for `N#CCNC(=O)c1cccc(-n2ncc3ccc(-c4cncc(N)c4)cc32)n1` [Example 73, 6-(6-(5-aminopyridin-3-yl)-1H-indazol-1-yl)-N-(cyanomethyl)picolinamide] it is 1000 to 10000 nM.

The values are drawn from US10246456B2, “IRAK4 inhibiting agents” (BIOGEN MA INC., priority 2014, dated 2019).
